# System: cultured canine chondrocytes
# Experiment: TNFα release in cultured canine chondrocytes challenged with IL1b
# Type: cell-based
# Conditions: IL1b challenge; FIG. 4
# Method: The study involved the use of cultured canine chondrocytes (i.e., cells within the joint that are activated during OA). The canine chondrocytes were subjected to an inflammatory challenge in the form of cytokine Interleukin 1 beta (“IL1b”). The canine chondrocytes were then treated with various anti-inflammatory compounds including Alpha-GEE; glucosamine; a TNFα receptor antagonist; and a NSAID (Rimadyl). Alpha-GEE was administered in concentrations ranging from 10 μM to 1000 μM. The resulting effects of the various treatments on both PGE2 release and TNFα release were examined.
# A similar time dependent decrease in TNFα release was also observed in chondrocytes treated with Alpha-GEE, as shown in FIG. 4.
row,SMILES,effect on TNFα release in canine chondrocytes
1,N[C@H]1C(O)O[C@H](CO)[C@@H](O)[C@@H]1O (some centres unmarked) [glucosamine],no significant effect
2,CC(C(=O)O)c1ccc2c(c1)[nH]c1ccc(Cl)cc12 (centres unmarked) [Rimadyl],significant increase

# From US12629348B2, “Method and composition for treating osteoarthritis” (Vireo Systems, Inc., priority 2013, dated 2026)
